Data from US7541374B2, “Malononitrile compounds and use thereof” (Sumitomo Chemical Company, Limited, priority 2004, dated 2009).
Like-named read-outs stand apart in the source and are kept apart here.

Legend:
Assay type in all cases: in vivo
[1] = test system: Musca domestica; assay: Test Example 3: treated filter paper with sucrose bait, Musca domestica; settings: read-out: rate of dead pests
Description: (§1) The formulation obtained according to Formulation Example 5 using the compound of the present invention (2), (3), (4), (6), (7), (8), (11), (12), (13), (15), (16), (19), (20), (21), (22), (28), (29), (30), (31), (32), (33), (34), (36), (37), (38) and (39) respectively, was diluted with water so that the active ingredient concentration came to 500 ppm to prepare a pesticidal solution for test.
(§2) On the bottom of a polyethylene cup having a diameter of 5.5 cm, a filter paper having the same diameter was laid, and 0.7 ml of the above pesticidal solution for test was added dropwise on the filter paper, followed by putting 30 mg of sucrose on it uniformly as a bait. Ten female Musca domestica imagoes were set free in the polyethylene cup and covered it with a lid. After 24 hours, the number of surviving and dead Musca domestica was examined and the rate of dead pests was calculated.

[2] = test system: Culex pipiens pallens; assay: Test Example 5: larvae in treated water, Culex pipiens pallens; settings: 24 h, read-out: rate of dead pests
Description: The formulation obtained according to Formulation Example 5 using the compound of the present invention (1), (2), (3), (4), (5), (6), (7), (8), (9), (10), (11), (12), (13), (14), (15), (16), (17), (18), (19), (20), (21), (22), (23), (25), (27), (28), (29), […], (31), (32), (33), (34), (35), (36), (37), (38), (39), (41), (44), (45), (46), (47) and (48) respectively, was diluted with water so that the active ingredient concentration came to 500 ppm to prepare a pesticidal solution for test.
0.7 ml of above pesticidal solution for test was added to 100 ml of ion exchanged water (active ingredient concentration: 3.5 ppm). Twenty last-instar larvae of Culex pipiens pallens were set free in the solution. After one day, the number of surviving and dead Culex pipiens pallens was examined and the rate of dead pests was calculated.

[3] = test system: Blattella germanica; assay: Test Example 4: treated filter paper with sucrose bait, Blattella germanica; settings: 144 h, read-out: rate of dead pests
Description: as §1, with “(8), (9),” for “(8),”, “(16), (18),” for “(16),”, “(22), (27),” for “(22),”, “(34), (35),” for “(34),”, “(38), (43)” for “(38)”, “[…]” for “(39)”
as §2, with “Two male Blattella germanica” for “Ten female Musca domestica”, “6 days,” for “24 hours,”, “Blattella germanica” for “Musca domestica”

[4] = 500 ppm, 0.7 ml on filter paper, ten female Musca domestica imagoes, after 24 hours
[5] = active ingredient concentration 3.5 ppm in water, twenty last-instar larvae of Culex pipiens pallens, after one day
[6] = 500 ppm, 0.7 ml on filter paper, two male Blattella germanica imagoes, after 6 days

Row | Structure (SMILES) | pest or weed control at 500 ppm [1, 4] [%] | pest or weed control at 3.5 ppm [2, 5] [%] | pest or weed control at 500 ppm [3, 6] [%] | pest or weed control at 500 ppm ([1]; Musca domestica, 24 h) [%] | pest or weed control at 3.5 ppm ([2]; Culex pipiens) [%] | pest or weed control at 500 ppm ([3]; Blattella germanica) [%]
1 | CC(C)(C)c1ccn(CC(C#N)(C#N)CCC(F)(F)F)n1 [compound of the present invention (3), [(3-t-butyl-1H-pyrazole-1-yl)methyl](3,3,3-trifluoropropyl) malononitrile] | ≥ 90 | ≥ 95 | 100 |  |  | 
2 | C=CCC(C#N)(C#N)Cn1cnc(C(C)(C)C)n1 [compound of the present invention (31), allyl [(3-t-butyl-1H-1,2,4-triazole-1-yl)methyl]malononitrile] | ≥ 90 | ≥ 95 | 100 |  |  | 
3 | N#CC(C#N)(CCC(F)(F)F)Cn1cnc(C(F)(F)C(F)(F)F)n1 [compound of the present invention (34), {[3-(pentafluoroethyl)-1H-1,2,4-triazole 1-yl]methyl}(3,3,3-trifluoropropyl) malononitrile] | ≥ 90 | ≥ 95 | 100 |  |  | 
4 | N#CC(C#N)(CCC(F)(F)F)Cn1cnc(C(F)(F)F)n1 [compound of the present invention (33), {[3-(trifluoromethyl)-1H-1,2,4-triazole-1-yl]methyl}(3,3,3-trifluoropropyl)malononitrile] | ≥ 90 | ≥ 95 | 100 |  |  | 
5 | N#CC(C#N)(CCC(F)(F)F)Cn1cc(Br)c(C(F)(F)F)n1 [compound of the present invention (15), [(4-bromo-3-trifluoromethyl-1H-pyrazole-1-yl)methyl](3,3,3-trifluoropropyl) malononitrile] | ≥ 90 | ≥ 95 | 100 |  |  | 
6 | CC(C)c1ncn(CC(C#N)(C#N)CCC(F)(F)F)n1 [compound of the present invention (28), [(3-i-propyl-1H-1,2,4-triazole-1-yl)methyl](3,3,3-trifluoropropyl) malononitrile] | ≥ 90 | ≥ 95 | 100 |  |  | 
7 | CC(C)c1nn(CC(C#N)(C#N)CCC(F)(F)F)cc1Br [compound of the present invention (11), [(4-bromo-3-i-propyl-1H-pyrazole-1-yl)methyl] (3,3,3-trifluoropropyl) malononitrile] | ≥ 90 | ≥ 95 | 100 |  |  | 
8 | C=CCC(C#N)(C#N)Cn1cc(Br)c(C(F)(F)F)n1 [compound of the present invention (16)] | ≥ 90 | ≥ 95 | 100 |  |  | 
9 | CC(C)c1ccn(CC(C#N)(C#N)CCC(F)(F)F)n1 [compound of the present invention (2), [(3-i-propyl-1H-pyrazole-1-yl)methyl](3,3,3-trifluoropropyl) malononitrile] | ≥ 90 | ≥ 95 | 100 |  |  | 
10 | N#CC(C#N)(CCC(F)(F)F)Cn1ccc(C(F)(F)F)n1 [compound of the present invention (6), {[3-(trifluoromethyl)-1H-pyrazole-1-yl]methyl}(3,3,3-trifluoropropyl) malononitrile] | ≥ 90 | ≥ 95 | 100 |  |  | 
11 | N#CC(C#N)(CCC(F)(F)F)Cn1cc(Br)c(C(F)(F)C(F)(F)F)n1 [compound of the present invention (37), [(4-bromo-3-(pentafluoroethyl)-1H-pyrazole-1-yl)methyl](3,3,3-trifluoropropyl) malononitrile] | ≥ 90 | ≥ 95 | 100 |  |  | 
12 | CC(C)(C)c1nc(Br)n(CC(C#N)(C#N)CCC(F)(F)F)n1 [compound of the present invention (32), [(5-bromo-3-t-butyl-1H-1,2,4-triazole 1-yl)methyl](3,3,3-trifluoropropyl)malononitrile] | ≥ 90 | ≥ 95 | 100 |  |  | 
13 | C=CCC(C#N)(C#N)Cn1cc(Cl)cn1 [compound of the present invention (20), allyl [(4-chloro-1H-pyrazole-1-yl)methyl]malononitrile] | ≥ 90 | ≥ 95 | 100 |  |  | 
14 | N#CC(C#N)(CCC(F)(F)F)Cn1cc(Cl)cn1 [compound of the present invention (19), [(4-chloro-1H-pyrazole-1-yl)methyl](3,3,3-trifluoropropyl) malononitrile] | ≥ 90 | ≥ 95 | 100 |  |  | 
15 | CC(C)(C)c1nn(CC(C#N)(C#N)CCC(F)(F)F)cc1Cl [compound of the present invention (13), [(4-chloro-3-t-butyl-1H-pyrazole-1-yl)methyl](3,3,3-trifluoropropyl) malononitrile] | ≥ 90 | ≥ 95 | 100 |  |  | 
16 | CC(C)(C)c1nn(CC(C#N)(C#N)CCC(F)(F)F)cc1Br [compound of the present invention (12), [(4-bromo-3-t-butyl-1H-pyrazole-1-yl)methyl](3,3,3-trifluoropropyl) malononitrile] | ≥ 90 | ≥ 95 | 100 |  |  | 
17 | N#CC(C#N)(CCC(F)(F)F)Cn1cc(C(F)(F)F)cn1 [compound of the present invention (22), {[4-(trifluoromethyl)-1H-pyrazole-1-yl]methyl}(3,3,3-trifluoropropyl) malononitrile] | ≥ 90 | ≥ 95 | 100 |  |  | 
18 | N#CC(C#N)(CCC(F)(F)F)Cn1ccc(C=O)n1 [compound of the present invention (8), [(3-formyl-1H-pyrazole-1-yl)methyl](3,3,3-trifluoropropyl) malononitrile] |  |  |  | ≥ 90 | ≥ 95 | 100
